# Data reported in PubChem BioAssay AID270 (DTP/NCI, 2004).
# Several values for one entry are separate records, joined by “and”; a condition that tells them apart may be missing. Identical values can stand only once. Inconclusive results are not listed.
# Tested on: BDF1 mice, s.c. Lewis lung carcinoma, T/C %
# Test: NCI In Vivo Anticancer Drug Screen. Data for tumor model Lewis Lung Carcinoma (subcutaneous) in B6D2F1 (BDF1) mice
# Outline: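 The value reflects a ratio in which the treated cohort's survival time or tumour size is compared against mice receiving only vehicle.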
compound,measurement,setting,value
CC(C)CCCCCCCCCCCCC(=O)NCC(=O)NC1C(O)C(O)C(Nc2ncnc3nc[nH]c23)OC1C(O)CO (stereo unspecified),T/C,"endpoint: mean tumor weight, dose: 0.25 mg/kg/injection, schedule: Q01DX011 (ip), vehicle: saline, higher = larger tumour",69 % of control
same,T/C,"endpoint: mean tumor weight, dose: 0.5 mg/kg/injection, schedule: Q01DX011 (ip), vehicle: saline, higher = larger tumour",54 % of control
same,T/C,"endpoint: mean tumor weight, dose: 1.0 mg/kg/injection, schedule: Q01DX011 (ip), vehicle: saline, higher = larger tumour",100 % of control
O=NN(CCCl)C(=O)NC1C2CC3CC(C2)CC1C3 (stereo unspecified),T/C,"endpoint: median survival time, dose: 10.0 mg/kg/injection, schedule: Q01DX001 (ip), vehicle: Klucel (hydroxypropylcellulose) (HPC), higher = longer survival",99 % of control and 111 % of control
same,T/C,"endpoint: median survival time, dose: 20.0 mg/kg/injection, schedule: Q01DX001 (ip), vehicle: Klucel (hydroxypropylcellulose) (HPC), higher = longer survival",100 % of control
same,T/C,"endpoint: median survival time, dose: 25.0 mg/kg/injection, schedule: Q01DX001 (ip), vehicle: saline with Tween-80, higher = longer survival",102 % of control
same,T/C,"endpoint: median survival time, dose: 38.0 mg/kg/injection, schedule: Q01DX001 (ip), vehicle: saline with Tween-80, higher = longer survival",101 % of control
same,T/C,"endpoint: median survival time, dose: 40.0 mg/kg/injection, schedule: Q01DX001 (ip), vehicle: Klucel (hydroxypropylcellulose) (HPC), higher = longer survival",106 % of control
same,T/C,"endpoint: median survival time, dose: 57.0 mg/kg/injection, schedule: Q01DX001 (ip), vehicle: saline with Tween-80, higher = longer survival",96 % of control
same,T/C,"endpoint: median survival time, dose: 80.0 mg/kg/injection, schedule: Q01DX001 (ip), vehicle: Klucel (hydroxypropylcellulose) (HPC), higher = longer survival",110 % of control
same,T/C,"endpoint: median survival time, dose: 85.0 mg/kg/injection, schedule: Q01DX001 (ip), vehicle: saline with Tween-80, higher = longer survival",99 % of control and 121 % of control
same,T/C,"endpoint: median survival time, dose: 160.0 mg/kg/injection, schedule: Q01DX001 (ip), vehicle: Klucel (hydroxypropylcellulose) (HPC), higher = longer survival",113 % of control
same,T/C,"endpoint: median tumor weight (est.), dose: 25.0 mg/kg/injection, schedule: Q01DX001 (ip), vehicle: DMSO, higher = larger tumour",39 % of control
same,T/C,"endpoint: median tumor weight (est.), dose: 25.0 mg/kg/injection, schedule: Q01DX001 (sc), vehicle: olive oil, sesame oil, peanut oil, higher = larger tumour",80 % of control
same,T/C,"endpoint: median tumor weight (est.), dose: 38.0 mg/kg/injection, schedule: Q01DX001 (sc), vehicle: olive oil, sesame oil, peanut oil, higher = larger tumour",60 % of control
same,T/C,"endpoint: median tumor weight (est.), dose: 57.0 mg/kg/injection, schedule: Q01DX001 (ip), vehicle: DMSO, higher = larger tumour",3 % of control
same,T/C,"endpoint: median tumor weight (est.), dose: 57.0 mg/kg/injection, schedule: Q01DX001 (sc), vehicle: olive oil, sesame oil, peanut oil, higher = larger tumour",52 % of control
same,T/C,"endpoint: median tumor weight (est.), dose: 80.0 mg/kg/injection, schedule: Q01DX001 (ip), vehicle: saline with Tween-80, higher = larger tumour",53 % of control
same,T/C,"endpoint: median tumor weight (est.), dose: 85.0 mg/kg/injection, schedule: Q01DX001 (sc), vehicle: olive oil, sesame oil, peanut oil, higher = larger tumour",36 % of control
same,T/C,"endpoint: median tumor weight (est.), dose: 161.0 mg/kg/injection, schedule: Q01DX001 (ip), vehicle: saline with Tween-80, higher = larger tumour",60 % of control
same,T/C,"endpoint: median tumor weight (est.), dose: 215.0 mg/kg/injection, schedule: Q01DX001 (ip), vehicle: saline with Tween-80, higher = larger tumour",7 % of control
CC1CCC2(OC1)OC1C(O)C3C4CCC5CC(OC6OC(CO)C(OC7OC(CO)C(O)C(OC8OCC(O)C(O)C8O)C7OC7OC(CO)C(O)C(OC8OC(CO)C(O)C(O)C8O)C7O)C(O)C6O)C(O)CC5(C)C4CCC3(C)C1C2C (stereo unspecified),T/C,"endpoint: mean tumor weight, dose: 6.2 mg/kg/injection, schedule: Q01DX011 (ip), vehicle: carboxymethylcellulose (CMC), higher = larger tumour",47 % of control and 58 % of control
same,T/C,"endpoint: mean tumor weight, dose: 12.5 mg/kg/injection, schedule: Q01DX011 (ip), vehicle: carboxymethylcellulose (CMC), higher = larger tumour",93 % of control and 98 % of control
same,T/C,"endpoint: median survival time, dose: 1.25 mg/kg/injection, schedule: Q01DX009 (ip), vehicle: saline, higher = longer survival",115 % of control
same,T/C,"endpoint: median survival time, dose: 2.5 mg/kg/injection, schedule: Q01DX009 (ip), vehicle: saline, higher = longer survival",122 % of control
same,T/C,"endpoint: median survival time, dose: 5.0 mg/kg/injection, schedule: Q01DX009 (ip), vehicle: saline, higher = longer survival",111 % of control
CC(C)CCC[C@@H](C)[C@H]1CC[C@H]2[C@@H]3CC=C4C[C@@H](O)CC[C@]4(C)[C@H]3CC[C@]12C,T/C,"endpoint: median survival time, dose: 100.0 mg/kg/injection, schedule: Q01DX009 (ip), vehicle: Klucel (hydroxypropylcellulose) (HPC), higher = longer survival",100 % of control
same,T/C,"endpoint: median survival time, dose: 200.0 mg/kg/injection, schedule: Q01DX009 (ip), vehicle: Klucel (hydroxypropylcellulose) (HPC), higher = longer survival",90 % of control
same,T/C,"endpoint: median survival time, dose: 400.0 mg/kg/injection, schedule: Q01DX009 (ip), vehicle: Klucel (hydroxypropylcellulose) (HPC), higher = longer survival",90 % of control
same,T/C,"endpoint: median survival time, dose: 800.0 mg/kg/injection, schedule: Q01DX009 (ip), vehicle: Klucel (hydroxypropylcellulose) (HPC), higher = longer survival",89 % of control
Nc1nc(SCc2ccc([N+](=O)[O-])cc2)c2[nH]cnc2n1,T/C,"endpoint: mean tumor weight, dose: 125.0 mg/kg/injection, schedule: Q01DX011 (ip), vehicle: other, higher = larger tumour",98 % of control
same,T/C,"endpoint: mean tumor weight, dose: 250.0 mg/kg/injection, schedule: Q01DX011 (ip), vehicle: other, higher = larger tumour",75 % of control
same,T/C,"endpoint: mean tumor weight, dose: 500.0 mg/kg/injection, schedule: Q01DX011 (ip), vehicle: other, higher = larger tumour",80 % of control
same,T/C,"endpoint: mean tumor weight, dose: 1000.0 mg/kg/injection, schedule: Q01DX011 (ip), vehicle: other, higher = larger tumour",36 % of control
CCCCCCCCCCCCO[P+](=O)OCCCCCCCCCCCC,T/C,"endpoint: mean tumor weight, dose: 50.0 mg/kg/injection, schedule: Q01DX011 (ip), vehicle: other, higher = larger tumour",122 % of control
same,T/C,"endpoint: mean tumor weight, dose: 100.0 mg/kg/injection, schedule: Q01DX011 (ip), vehicle: other, higher = larger tumour",98 % of control
same,T/C,"endpoint: mean tumor weight, dose: 200.0 mg/kg/injection, schedule: Q01DX011 (ip), vehicle: other, higher = larger tumour",76 % of control
same,T/C,"endpoint: mean tumor weight, dose: 400.0 mg/kg/injection, schedule: Q01DX011 (ip), vehicle: other, higher = larger tumour",65 % of control
same,T/C,"endpoint: mean tumor weight, dose: 400.0 mg/kg/injection, schedule: Q01DX011 (ip), vehicle: saline, higher = larger tumour",36 % of control
same,T/C,"endpoint: mean tumor weight, dose: 600.0 mg/kg/injection, schedule: Q01DX011 (ip), vehicle: saline, higher = larger tumour",19 % of control
same,T/C,"endpoint: mean tumor weight, dose: 900.0 mg/kg/injection, schedule: Q01DX011 (ip), vehicle: saline, higher = larger tumour",21 % of control
same,T/C,"endpoint: median survival time, dose: 50.0 mg/kg/injection, schedule: Q01DX009 (ip), vehicle: saline, higher = longer survival",108 % of control
same,T/C,"endpoint: median survival time, dose: 100.0 mg/kg/injection, schedule: Q01DX009 (ip), vehicle: saline, higher = longer survival",99 % of control
CCCCCCCC(=O)O[C@H]1[C@H]2[C@@H](CC1(C)C)C(=O)[C@]13O[C@H]1C(=O)[C@]1(CO1)[C@]23C,T/C,"endpoint: median survival time, dose: 0.31 mg/kg/injection, schedule: Q01DX009 (ip), vehicle: Klucel (hydroxypropylcellulose) (HPC), higher = longer survival",89 % of control
same,T/C,"endpoint: median survival time, dose: 0.63 mg/kg/injection, schedule: Q01DX009 (ip), vehicle: Klucel (hydroxypropylcellulose) (HPC), higher = longer survival",90 % of control
same,T/C,"endpoint: median survival time, dose: 1.25 mg/kg/injection, schedule: Q01DX009 (ip), vehicle: Klucel (hydroxypropylcellulose) (HPC), higher = longer survival",89 % of control
same,T/C,"endpoint: median survival time, dose: 2.5 mg/kg/injection, schedule: Q01DX009 (ip), vehicle: Klucel (hydroxypropylcellulose) (HPC), higher = longer survival",89 % of control
Oc1c(Cl)cc(Cl)cc1/C=N/NC(=S)Nc1cc(C(F)(F)F)cc(C(F)(F)F)c1,T/C,"endpoint: median survival time, dose: 3.13 mg/kg/injection, schedule: Q01DX009 (ip), vehicle: olive oil, sesame oil, peanut oil, higher = longer survival",104 % of control
same,T/C,"endpoint: median survival time, dose: 12.5 mg/kg/injection, schedule: Q01DX009 (ip), vehicle: olive oil, sesame oil, peanut oil, higher = longer survival",90 % of control
CCN(CC)C(=S)S.[Te],T/C,"endpoint: mean tumor weight, dose: 50.0 mg/kg/injection, schedule: Q01DX011 (ip), vehicle: carboxymethylcellulose (CMC), higher = larger tumour",24 % of control and 36 % of control
same,T/C,"endpoint: mean tumor weight, dose: 200.0 mg/kg/injection, schedule: Q01DX011 (ip), vehicle: carboxymethylcellulose (CMC), higher = larger tumour",10 % of control
NNc1nncc2ccccc12,T/C,"endpoint: mean tumor weight, dose: 13.0 mg/kg/injection, schedule: Q01DX011 (ip), vehicle: carboxymethylcellulose (CMC), higher = larger tumour",111 % of control
same,T/C,"endpoint: mean tumor weight, dose: 20.0 mg/kg/injection, schedule: Q01DX011 (ip), vehicle: carboxymethylcellulose (CMC), higher = larger tumour",87 % of control
same,T/C,"endpoint: mean tumor weight, dose: 30.0 mg/kg/injection, schedule: Q01DX011 (ip), vehicle: carboxymethylcellulose (CMC), higher = larger tumour",110 % of control
O=S(=O)(O)C(Nc1ccccc1)c1ccccc1 (stereo unspecified),T/C,"endpoint: mean tumor weight, dose: 100.0 mg/kg/injection, schedule: Q01DX011 (ip), vehicle: water, higher = larger tumour",51 % of control
same,T/C,"endpoint: mean tumor weight, dose: 200.0 mg/kg/injection, schedule: Q01DX011 (ip), vehicle: water, higher = larger tumour",71 % of control
same,T/C,"endpoint: mean tumor weight, dose: 400.0 mg/kg/injection, schedule: Q01DX011 (ip), vehicle: water, higher = larger tumour",27 % of control
CC[C@H]1CN2CCc3cc(OC)c(OC)cc3[C@@H]2C[C@@H]1C[C@H]1NCCc2c1[nH]c1ccc(O)cc21,T/C,"endpoint: median survival time, dose: 0.25 mg/kg/injection, schedule: Q01DX009 (ip), vehicle: Klucel (hydroxypropylcellulose) (HPC), higher = longer survival",103 % of control
same,T/C,"endpoint: median survival time, dose: 0.5 mg/kg/injection, schedule: Q01DX009 (ip), vehicle: Klucel (hydroxypropylcellulose) (HPC), higher = longer survival",93 % of control
same,T/C,"endpoint: median survival time, dose: 1.0 mg/kg/injection, schedule: Q01DX009 (ip), vehicle: Klucel (hydroxypropylcellulose) (HPC), higher = longer survival",90 % of control
CC(=O)OC1CC(OC2C(O)CC(OC3C(O)CC(OC4CCC5(C)C(CCC6C5CCC5(C)C(C7=CC(=O)OC7)CCC65O)C4)OC3C)OC2C)OC(C)C1OC1OC(CO)C(O)C(O)C1O (stereo unspecified),T/C,"endpoint: mean tumor weight, dose: 1.2 mg/kg/injection, schedule: Q01DX011 (ip), vehicle: carboxymethylcellulose (CMC), higher = larger tumour",55 % of control
same,T/C,"endpoint: mean tumor weight, dose: 2.5 mg/kg/injection, schedule: Q01DX011 (ip), vehicle: carboxymethylcellulose (CMC), higher = larger tumour",60 % of control
same,T/C,"endpoint: mean tumor weight, dose: 5.0 mg/kg/injection, schedule: Q01DX011 (ip), vehicle: carboxymethylcellulose (CMC), higher = larger tumour",32 % of control
C[C@]12CC[C@H]3[C@@H](CC[C@]4(O)C[C@@H](O)CC[C@]34C=O)[C@@]1(O)CC[C@@H]2C1=CC(=O)OC1,T/C,"endpoint: median survival time, dose: 3.12 mg/kg/injection, schedule: Q01DX009 (ip), vehicle: Klucel (hydroxypropylcellulose) (HPC), higher = longer survival",87 % of control
same,T/C,"endpoint: median survival time, dose: 12.5 mg/kg/injection, schedule: Q01DX009 (ip), vehicle: Klucel (hydroxypropylcellulose) (HPC), higher = longer survival",113 % of control
same,T/C,"endpoint: median survival time, dose: 25.0 mg/kg/injection, schedule: Q01DX009 (ip), vehicle: Klucel (hydroxypropylcellulose) (HPC), higher = longer survival",116 % of control
